Experimental findings from patent US4321381A, “Ergot derivatives” (Farmitalia Carlo Erba S.p.A., priority 1978, dated 1982) are described below.

For this experiment, the system named is spontaneously hypertensive male rats, strain MHS. Kind of experiment: Anti-hypertensive activity in the spontaneously hypertensive rat (MHS): blood pressure and heart rate at the tail. The format is in vivo. The protocol:
1. Spontaneously Hypertensive Rat (MHS)
Four spontaneously hypertensive male rats, strain MHS, weight 250 to 300 g for each group were used. The animals were treated for four consecutive days. The drugs were administered by gastric gavage while suspended in 5% arabic gum (0.2 ml/100 g body weight), and blood pressure (BP) and heart rate (HR) were measured at the tail by BP Recorder W+W. Blood pressure and heart rate were measured on the first and fourth day of treatment 1 hour before and 1 and 5 hours after drug administration.

In the case of `CCNC(=O)C(C#N)C[C@@H]1C[C@@H]2c3cccc4[nH]cc(c34)C[C@H]2N(C(C)C)C1` (stereo partly drawn) [Example 38, 2-Cyano-3-(6'-isopropylergoline-8'β)-N-ethyl propionamide], under “5 mg/kg os”, the “Change in BP, 1 hr after dose, first day” value is given as -20 mm Hg; the “Change in BP, 5 hrs after dose, first day” value is -10 mm Hg; the “Change in BP, 1 hr after dose, fourth day” value is -32 mm Hg; the “Change in BP, 5 hrs after dose, fourth day” value is recorded as -28 mm Hg.
For `N#CC(CC1CC2c3cccc4[nH]cc(c34)CC2N(CC2CC2)C1)C(N)=O` (stereo not drawn) [355/1323, 2-Cyano-3-(6'-methylcyclopropylergoline-8'β)-propionamide] the same measures were -15 mm Hg, -20 mm Hg, -20 mm Hg and -30 mm Hg.
For `CCCN1C[C@H](CC(C#N)C(=O)NCC)C[C@@H]2c3cccc4[nH]cc(c34)C[C@H]21` (stereo partly drawn) [355/1281, 2-Cyano-3-(6'-n-propylergoline-8'β)-N-ethyl-propionamide] the same measures were -25 mm Hg, -15 mm Hg, -30 mm Hg and -35 mm Hg.
In the same order, the values of `CCNC(=O)C(C#N)CC1CC2c3cccc4[nH]cc(c34)CC2N(CC2CC2)C1` (stereo not drawn) [355/1324, 2-Cyano-3-(6'-methylcyclopropylergoline-8β)-N-ethylpropionamide] are -20 mm Hg, -40 mm Hg, -40 mm Hg and -35 mm Hg.
As to `C=CCN1C[C@H](CC(C#N)C(=O)NCC)C[C@@H]2c3cccc4[nH]cc(c34)C[C@H]21` (stereo partly drawn) [355/1320, 2-Cyano-3-(6'-allylergoline-8'β)-N-ethylpropionamide], where the note is “5 mg/kg os”, the “Change in BP, 1 hr after dose, first day” value is -30 mm Hg; the “Change in BP, 5 hrs after dose, first day” value is reported as -20 mm Hg; the “Change in BP, 1 hr after dose, fourth day” value was -20 mm Hg; the “Change in BP, 5 hrs after dose, fourth day” value is on record as -15 mm Hg.
For the compound `CC(C)N1C[C@H](CC(C#N)C(N)=O)C[C@@H]2c3cccc4[nH]cc(c34)C[C@H]21` (stereo partly drawn) [Example 37, 2-Cyano-3-(6'-isopropylergoline-8'β)-propionamide], where the note is “5 mg/kg os”, the “Change in BP, 1 hr after dose, first day” value is reported as -30 mm Hg; the “Change in BP, 5 hrs after dose, first day” value is reported as -25 mm Hg; the “Change in BP, 1 hr after dose, fourth day” value was -45 mm Hg; the “Change in BP, 5 hrs after dose, fourth day” value is recorded as -35 mm Hg.
Regarding `CCCN1C[C@H](CC(C#N)C(N)=O)C[C@@H]2c3cccc4[nH]cc(c34)C[C@H]21` (stereo partly drawn) [355/1282, 2-Cyano-3-(6'n-propylergoline-8'β)-propionamide], for the setting “2 mg/kg os”, the “Change in BP, 1 hr after dose, first day” value is -20 mm Hg; the “Change in BP, 5 hrs after dose, first day” value is given as -10 mm Hg; the “Change in BP, 1 hr after dose, fourth day” value is recorded as -15 mm Hg; the “Change in BP, 5 hrs after dose, fourth day” value was -25 mm Hg. For the same compound, under “5 mg/kg os”, the “Change in BP, 1 hr after dose, first day” value is recorded as -40 mm Hg; the “Change in BP, 5 hrs after dose, first day” value is -45 mm Hg; the “Change in BP, 1 hr after dose, fourth day” value was -25 mm Hg; the “Change in BP, 5 hrs after dose, fourth day” value is reported as -30 mm Hg.
`C=CCN1C[C@H](CC(C#N)C(N)=O)C[C@@H]2c3cccc4[nH]cc(c34)C[C@H]21` (stereo partly drawn) [355/1266, 2-Cyano-3-(6'-allylergoline-8'β)-propionamide]: where the note is “2 mg/kg os”, the “Change in BP, 1 hr after dose, first day” value was -14 mm Hg; the “Change in BP, 5 hrs after dose, first day” value is -15 mm Hg; the “Change in BP, 1 hr after dose, fourth day” value is -25 mm Hg; the “Change in BP, 5 hrs after dose, fourth day” value is reported as -45 mm Hg. Where the note is “5 mg/kg os”, the “Change in BP, 1 hr after dose, first day” value is reported as -14 mm Hg; the “Change in BP, 5 hrs after dose, first day” value was -10 mm Hg; the “Change in BP, 1 hr after dose, fourth day” value is on record as -35 mm Hg; the “Change in BP, 5 hrs after dose, fourth day” value is -60 mm Hg.
